System: Mycobacterium tuberculosis H37Rv growth inhibition, no glycerol
Experiment: Confirmatory growth inhibition assay, Mycobacterium tuberculosis H37Rv, absence of glycerol (AID 449764);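 also: growth read after 7 days of incubation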
Details: for IC90: measured here: IC90 growth inhibition

Structure (SMILES)	IC50 [µM]	IC90 [µM]
COc1ccc2cc1Oc1ccc(cc1)C[C@H]1c3c(cc(OC)c4c3Oc3c(ccc5c3[C@H](C2)N(C)CC5)O4)CCN1C	5.54	6.24
O=C([O-])c1ccccc1-[n+]1c(-c2ccccc2)cc(-c2ccccc2)cc1-c1ccccc1	22	24.5
CCCOC(=O)/C(=C\c1ccc([N+](=O)[O-])o1)NC(=O)c1ccccc1	24.2	> 100
CCSc1ccc2c(c1)N(CCCN1CCN(C)CC1)c1ccccc1S2	23.1	27.2
COc1cc2ccccc2cc1C(=O)Nc1ccc(Cc2ccncc2)cc1	18.9	27.3
CCCc1cc(NC(=O)CCl)n(-c2ccccc2)n1	2.93	3.32
COc1ccc(C(=O)c2c(C(F)(F)F)oc3c2C(=O)c2ccccc2C3=O)cc1OC	16.7	22.1
Cc1cc(C)nc(Sc2ncnc(N)c2[N+](=O)[O-])n1	19.3	25.5
COc1ccc(C)cc1Nc1n[n+](-c2ccccc2)c(-c2c(Cl)cccc2Cl)s1	18.4	24.9
CC1CC(C)(C)Nc2ccc(OC(=O)c3ccco3)cc21 (stereo not given)	21.7	29.5
O=c1cc(-c2ccccc2Cl)oc2ccc([N+](=O)[O-])c(O)c12	21.4	28.2
COc1cc(C#Cc2c(-c3cncn3C)n(C)c3ccc(-c4cnc(N5CCOCC5)nc4)cc23)cc(OC)c1	49.5	55
COCCCNC(=O)/C(C#N)=C/c1c(N2CCN(c3cccc(Cl)c3)CC2)nc2c(C)cccn2c1=O	38.5	> 100
Cn1nc([N+](=O)[O-])nc1Sc1ccc(C(C)(C)C)cc1	8.88	17.1
CCc1cc2c(=O)n(C(C)C(=O)OC3CCCCC3)cnc2s1 (stereo not given)	24.1	52
CCCCn1c(NCc2ccc3c(c2)OCO3)nc2ccccc21	23.5	25.9
CCc1c(C2(O)CCCCC2)[nH]c2ccc(C(F)(F)F)cc12	40.2	> 50
COc1cc(NC(=O)C/C(C)=N/NC(=O)c2ccccn2)c(OC)cc1Cl	5.83	9.98
COc1ccc2c(c1)CC/C(=C\C=C\c1ccccc1OC)C2=O		> 100
S=C(NCc1ccc(Cl)cc1)NC12CC3CC(CC(C3)C1)C2	3.83	28.1
O=c1oc2ccccc2c(O)c1/C=C1\C=Nc2ccccc21	38.8	64.6
CCCCSCCCNC(=O)c1cn(CC)c2ccc(S(=O)(=O)N3CCOCC3)cc2c1=O	44.3	50.8

Structure (SMILES)	IC50 [µM]	IC90 [µM]
Cn1ccnc1C(=O)C1CCCN(Cc2cn[nH]c2-c2ccc(-c3ccccc3)cc2)C1 (stereo not given)	77.1	99.4
CN1CCN(C(=O)/C=C/c2cn(-c3ccccc3)nc2-c2ccc3c(c2)OCCO3)CC1		> 100
CCC(C)NC(=O)c1cn(CC)c2cc(N3CCN(C(=O)c4ccco4)CC3)c(F)cc2c1=O (stereo not given)	23.5	29.7
CNc1ccc2oc(C[C@H]3O[C@@]4(CC[C@H]3C)O[C@H]([C@H](C)C(=O)c3ccc[nH]3)[C@H](C)C[C@H]4C)nc2c1C(=O)O	2.82	3.18
Cc1cccc(NC(=O)c2nc[nH]c2C(=O)N[C@H](C)c2ccccc2)c1	10.2	> 100
COc1cc(C2c3cc4c(cc3C(OC3OC5COC(c6cccs6)OC5C(O)C3O)C3COC(=O)C23)OCO4)cc(OC)c1O (stereo not given)	27.6	35.4
Cc1ccc(S(=O)(=O)/N=C(\CCl)N2CCOCC2)cc1	18.6	27.5
CN(C)CCOc1nc(-c2ccccc2)nc2c1oc1ccccc12	19.1	25.6
O=C(c1ccc(CNc2c(N3CCCC3)c(=O)c2=O)cc1)N1CC=C(c2ccccc2)CC1	1.43	1.62
CCc1cccc2c(C(=O)CCl)c[nH]c12	4.05	7.83
O=C(/C=C/c1ccc(O)cc1)c1ccc(NC2=C(N3CCCCC3)C(=O)c3ccccc3C2=O)cc1	17.5	22.4
Cc1ccc(S(=O)(=O)NCc2ccc(C(=O)NCCCN3CCC(Cc4ccccc4)CC3)cc2)cc1		> 100
Nc1ccc(-c2nc3nc(N)nc(N)c3nc2-c2ccc(N)cc2)cc1	48.8	> 100
CCCCCc1nc2c(c(=O)c3ccccc3n2C)c(=O)n1C1CCCCCC1	55.6	77.5
CCCc1cc(-c2nc(N)ncc2-c2ccc3c(c2)OCCCO3)c(O)cc1OC	54.3	81
CCc1cc2c(=O)c(-c3cnn(-c4ccccc4)c3)c(C)oc2c(CN2CCCCC2)c1O	32.4	52.4
CCOC(=O)c1ccc(-c2c(-c3ccc4c(c3)OCO4)noc2C)cc1F	53.5	> 100
Cc1cc(C)cc(NC(=O)CCc2ccc(C)o2)c1	92.9	> 100
COc1ccccc1C1=NOC(COC(=O)c2ccc([N+](=O)[O-])cc2)C1 (stereo not given)	47.7	> 100
c1ccc(-c2nc3c(ccc4ccccc43)[nH]2)nc1	31.4	68.5
Cc1ccc2nc3c(cc(C(=O)NCc4ccco4)c(=N)n3Cc3ccco3)c(=O)n2c1	53.6	> 100
CC(C)(C)C1CCc2sc(-c3nnc(CCl)o3)cc2C1 (stereo not given)	5.74	19.5

Structure (SMILES)	IC50 [µM]	IC90 [µM]
Cn1cccc1/C=C1/C(=O)NC(=S)N(Cc2ccc(F)cc2)C1=O		> 100
CCCc1ccc2oc(C(=O)N(C)Cc3nccs3)c(C)c2c1	45	68.3
CCC(=O)Nc1nc2ccccc2n1Cc1ccc(Cl)cc1	< 0.2	4.27
N#CC(C#N)=C(N)CSc1cccc[n+]1[O-]	43.6	49
N#C/C(N=Nc1ccccc1O)=N\Nc1ccccc1O	2.25	3.64
CC(=O)c1cccc(NC(=S)NC2CCCCCCC2)c1	27.3	> 100
O=C(/C=C/c1cc(Br)ccc1O)c1ccco1	15.7	20.4
Cc1ccc(/C=C/S(=O)(=O)NCC(=O)OCC(=O)Nc2c(F)cccc2F)cc1	22.9	41.3
O=C(Nc1cc(N2CCOCC2)ncn1)NC1(C(F)(F)F)Oc2ccc(Cl)cc2O1 (stereo not given)	23.6	26.9
CCOc1cc(/C=N/Nc2nc(Nc3ccccc3)nc(N3CCCCC3)n2)ccc1OCC(=O)O	20.5	27.6
c1ccc(-c2ccccc2OCCCCn2ccnc2)cc1	23.3	26.9
Cc1cccc(C(=O)NNC(=S)NC(=O)c2ccccc2)c1	1.56	2.69
COc1ccccc1C1CCN(Cc2ccc3ccccc3c2)CC1	21.8	24.6
Cc1cc(-c2c(C)[nH]n(-c3ccccc3)c2=O)n[nH]1	39.4	> 100
N#CCCN(C(=O)COC(=O)CCc1c[nH]c2ccccc12)c1ccc(F)cc1	34.4	68.5
CN1CCN(Cc2nc3ccccc3c(=O)n2Cc2nc(-c3ccc4ccccc4c3)cs2)CC1	20.7	28.5
CCN1CCN(c2oc(COc3ccc(-c4ccccc4)cc3)nc2C#N)CC1	36.4	47.6
COc1cc(OC)cc(-c2cc3nc(C)c(CCC(=O)NC(C)CCc4ccco4)c(C)n3n2)c1 (stereo not given)	53.2	90.5
CNc1ncnc2c1ncn2[C@@H]1O[C@H](CO)[C@@H](O)[C@H]1O	3.97	9.18
O=C(Nc1nnc(C2=COCCO2)o1)c1ccc(Cc2ccccc2)cc1	11.7	20.3
CCCc1cc(-c2nc(-c3ccc(Br)cc3)cs2)ccn1	16.4	24.6
Nc1c(C(=O)OCC2CCCO2)c2nc3ccccc3nc2n1C1CCCC1 (stereo not given)	60.7	86.8

Structure (SMILES)	IC50 [µM]	IC90 [µM]
CN(C(=O)COC(=O)c1sc2ccccc2c1Cl)C1CCCCC1	9.63	14.2
CCOC(=O)COn1c2c(c3c4no[n+]([O-])c4ccc31)CCCC2	5.68	6.48
O=[N+]([O-])c1ccc(CN2CCN(c3ccc(Cl)cc3)CC2)o1	0.44	> 100
CN1CCN(Cn2cc(/C=C/C(=O)c3ccccc3)c3ccccc32)CC1	19.8	39.3
COc1cc(/C=C/C(=O)c2c(O)n(CCc3ccccc3)c(=O)[nH]c2=O)ccc1O	14.3	21.8
CC1=NN(c2ccccc2)C(=O)C1C(=O)c1ccccc1 (stereo not given)	50.6	78
Cn1nc(C(F)(F)F)c2cc(NC(=O)OCC(C)(C)C)sc21	22.8	43.1
Cc1cc(/C=C2\SC(=Nc3ccc(F)cc3)NC2=O)c(C)n1-c1ccc(S(N)(=O)=O)cc1	22.7	26.2
Cc1ccc(CNC(=O)c2sc3nc4c(c(C(F)(F)F)c3c2N)CCC4)cc1	46.3	50.9
Cc1ccc(-n2nc(C)c3c(C)c(CCC(=O)Nc4ccc(CN5CCCC5)cc4)c(C)nc32)cc1	15.7	22.1
COc1ccc(NS(=O)(=O)c2ccc3nc(COc4cccc5ccccc45)[nH]c3c2)cc1	62.3	> 100
O=c1[nH]c(=O)n(Cc2ccccc2)c2nc(-c3ccc(Oc4ccc(F)cc4)c([N+](=O)[O-])c3)n(CCO)c12	50.5	> 100
CCOC(=O)c1cnc(Nc2nc3ccccc3o2)nc1CSC(=S)N(CC)CC	49.3	56.6
Cc1cc(C)n(C(=O)c2ccc([N+](=O)[O-])cc2[N+](=O)[O-])n1	8.89	12.3
COC(=O)[C@H](CC(C)C)NC(=O)c1cc2c(cn1)[nH]c1ccccc12	19.9	39.8
CCCCNC(=S)Nc1ccc2cn[nH]c2c1	12	31.8
CCCCN(CCCC)CCC(O)c1cc2c(Cl)cc(Cl)cc2c2cc(C(F)(F)F)ccc12 (stereo not given)	17.6	23.4
c1ccc(CC2CCN(C3=Nc4cccc5cccc3c45)CC2)cc1	28.3	37.9
CCOC(=O)Cn1nc(-c2ccccc2)nc1-c1ccccc1	13.1	29.4
O=C(OCc1ccccc1F)c1cnc(Cl)c(Cl)c1	22	55
C=CCc1cc(C)ccc1OCCCC(C(=O)OCC)C(=O)OCC	28.1	52.1

Reference: PubChem BioAssay AID449764 (Southern Research Specialized Biocontainment Screening …, 2010)
